Results: patent US20060030536A1, “Combination therapies for cancer and proliferative angiopathies” (University of South Florida, priority 2004, published 2006)

Tests used:
[1] = test system: Stat3; experiment: EMSA of Stat3 DNA-binding activity in nuclear extracts; assay type: cell-based, human; conditions: for Stat3 DNA-binding activity: A2058 (also A2056) human melanoma cells
Procedure: Nuclear extracts (1-8 μg of total protein) were incubated with the ^32P-radiolabled hSEE (high-affinity Sis-Inducible Element) oligonucleotide probe. Protein-DNA complexes were resolved by 5% non-denatured polyacrylamide gel electrophoresis (PAGE) and specific STAT/DNA complexes were detected by autoradiography.

[2] = test system: HIF-1α; experiment: Western blot of HIF-1α protein in tumor cells; assay type: cell-based, human; conditions: for HIF-1α protein level: A2058 (also A2056) human melanoma cells, constitutively active c-Src
[3] = test system: VEGF; experiment: Western blot of VEGF protein in tumor cells; assay type: cell-based, human
Excerpt: […] Fifty […] of nuclear or whole-cell extracts was used for Western blot analysis. HIF-1α rabbit polyclonal antibody (H-206) (1:500 dilution), HIF-1β mouse monoclonal antibody (1:1,500 dilution), AKT1 mouse monoclonal, anti-phospho-AKT rabbit polyclonal, anti-VEGF monoclonal antibody (1:1,000 dilution) were used for the Western blot analyses. Horseradish peroxidase-conjugated sheep anti-mouse and donkey anti-rabbit or anti-goat secondary antibodies were used at 1:2,000 and 1:5,000 dilutions, respectively. The signal was developed with SuperSignal West Pico Chemiluminescent Substrate (PIERCE).

[4] = test system: Jak2; conditions: cited from earlier work
[5] = biological target: Stat3 (Homo sapiens, UniProt P40763); conditions: cited from earlier work
Sequence of Stat3 (Homo sapiens, UniProt P40763) (P40763 whole entry): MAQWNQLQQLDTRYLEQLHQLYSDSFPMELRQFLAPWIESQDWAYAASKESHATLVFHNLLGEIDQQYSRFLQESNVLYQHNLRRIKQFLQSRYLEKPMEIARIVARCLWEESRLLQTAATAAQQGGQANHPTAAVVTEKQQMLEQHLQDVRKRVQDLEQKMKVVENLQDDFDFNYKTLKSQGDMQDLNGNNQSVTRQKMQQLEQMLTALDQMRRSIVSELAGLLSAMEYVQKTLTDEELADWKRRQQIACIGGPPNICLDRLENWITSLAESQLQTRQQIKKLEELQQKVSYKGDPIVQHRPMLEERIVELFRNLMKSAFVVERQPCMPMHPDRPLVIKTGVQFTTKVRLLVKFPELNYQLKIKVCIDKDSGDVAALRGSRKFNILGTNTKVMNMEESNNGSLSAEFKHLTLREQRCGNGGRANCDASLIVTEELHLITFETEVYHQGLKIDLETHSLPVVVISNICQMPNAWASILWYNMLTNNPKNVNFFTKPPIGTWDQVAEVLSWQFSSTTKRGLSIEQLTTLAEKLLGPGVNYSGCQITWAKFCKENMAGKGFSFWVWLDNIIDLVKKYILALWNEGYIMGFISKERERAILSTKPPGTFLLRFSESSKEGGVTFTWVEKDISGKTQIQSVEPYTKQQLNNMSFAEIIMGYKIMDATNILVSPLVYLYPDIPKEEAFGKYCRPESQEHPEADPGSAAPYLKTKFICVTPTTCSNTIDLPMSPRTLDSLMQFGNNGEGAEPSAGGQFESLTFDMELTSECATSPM

[6] = test system: AKT1 mRNA; experiment: Microarray gene expression database, AKT1 mRNA; assay type: cell-based; conditions: MDA-MB435 human breast cancer cell line
[7] = test system: PI3k/Akt or Mek/Erk pathways; conditions: cited from earlier work
[8] = test system: MDA-MB-468 cells; experiment: TUNEL assay (apoptosis); assay type: cell-based, human; conditions: single agents: 20 μM LY294002; 0.1 or 0.05 μM JSI-124; 48 h
Procedure: The assay was performed following manufacturer's instruction using the APO-Direct kit. […] After removing the DNA labeling solution by rinsing cells with Rinsing Buffer, the cells were incubated with the Propidium Iodide/RNase A solution, incubated for 30 min at room temperature in the dark, and then analyzed by flow cytometry within 3 h of staining.

[9] = test system: MDA-MB-468 and MDA-MB453 cells; experiment: Flow cytometry cell cycle analysis; assay type: cell-based, human; conditions: 20 μM LY294002, 0.05 μM JSI-124, 48 h
Procedure: MDA-453 cells were treated with vehicle DMSO (control), 20 μM LY294002; 0.05 μM JSI-124 or 20+0.05 μM LY294002+JSI-124 for 48 h, followed by flow cytometry analysis.
Cell cycle analysis based on DNA content was performed as we described previously. At each time point, cells were harvested, counted, and washed twice with wash buffer (1 mg glucose per ml PBS). Cells (2×10^6) were suspended in 0.5 ml PBS, fixed in 5 ml of 70% ethanol for over night at −20° C., centrifuged, washed once with PBS and resuspended again in 1 ml of propidium iodide staining solution (50 jig propidium iodide, 100 units RNase A and 1 mg glucose per ml PBS), and incubated at room temperature in the dark for 30 min. The cells were then analyzed with FACScan (Becton Dickinson Immunocytometry, Calif.), ModFit LT and WinMDI V.2.8 cell cycle analysis software (Verity Software; Topsham, Me.). The cell cycle distribution is shown as the percentage of cells containing G1, S, G2, and M DNA judged by propidium iodide staining.
To determine the effect of combination treatment on cell cycle changes, MDA-MB-468 and MDA-MB453 cells were treated with the indicated concentrations of LY294002, JSI-124 or their combinations for 48 h, followed by flow cytometry analysis.

[10] = test system: MDA-MB-468 cells; experiment: Trypan blue dye exclusion assay (cell death); assay type: cell-based, human; conditions: 48 h
Procedure: MDA-MB-468 cells were treated with vehicle DMSO (control), 10 or 20 μM LY294002; 0.05 EM JSI-124; 10+0.05 μM LY294002+JSI-124; or 20+0.05 μM LY294002+JSI-124 for 48 h, followed by trypan blue dye exclusion assay. The numbers indicate the percentage of dead cells. Standard deviations are shown with error bars.
The trypan blue dye exclusion assay was performed by mixing 20 μl of cell suspension with 20 μl of 0.4% trypan blue dye before injecting into a hemocytometer and counting. The number of cells that absorbed the dye and those that exclude the dye were counted, from which the percentage of nonviable cell number to total cell number was calculated.
To determine whether the combination treatment is more beneficial than single agent treatment to induce breast cancer cell death, MDA-MB-468 cells were treated with the indicated concentrations of either drug alone or in combinations for 48 h, followed by trypan blue dye incorporation assays.

[11] = EGF stimulation, DU145 human prostate cancer cells (data not shown)

CCC(O)[NH+]1CC[NH+](C(O)CC)CC1.[Cl][Pt-2]([Cl])([Cl])([Cl])([Cl])[Cl] (centres unmarked) [IS3 295]
Stat3 activity (DNA-binding) ([1]; DU145 prostate cancer cells): reduction in Stat3 activity in a dose-dependent manner | HIF-1α expression ([2]; DU145 tumor cells): reduction in the expression of both HIF-1α and VEGF | VEGF expression ([3]; DU145 tumor cells): reduction in the expression of both HIF-1α and VEGF

CC(=O)OC(C)(C)/C=C/C(=O)[C@](C)(O)[C@H]1[C@H](O)C[C@@]2(C)[C@@H]3CC=C4[C@@H](C=C(O)C(=O)C4(C)C)[C@]3(C)C(=O)C[C@]12C [Cucurbitacin E]
Jak2 activation [4]: suppress both Stat3 and Jak2 activation | Stat3 activation [5]: suppress both Stat3 and Jak2 activation

Stat3 antisense oligonucleotide: antisense nucleic acid 5′-AAAAAGTGCCCAGATTGCCC-3′ used to knock down Stat3 expression (listed as DNA, chemistry not given here)
AKT1 mRNA expression [6]: reduction in AKT1 mRNA expression | HIF-1α upregulation [2, 11]: required for both HIF-1α and VEGF upregulation by EGF stimulation | VEGF upregulation [3, 11]: required for both HIF-1α and VEGF upregulation by EGF stimulation

Cc1cc(Nc2ncc3cc(-c4c(Cl)cccc4Cl)c(=O)n(C)c3n2)ccc1F [PD180970]
Stat3 DNA-binding activity [1]: parallel reduction in Stat3 DNA-binding activity | HIF-1α protein level [2]: dose-dependent reduction in HIF-1α protein level

CC(C)(O)/C=C/C(=O)[C@](C)(O)C1[C@H](O)C[C@@]2(C)C3CC=C4C(C=C(O)C(=O)C4(C)C)[C@]3(C)C(=O)C[C@]12C (some centres unmarked) [JSI-124, Cucurbitacin I]
inhibition of PI3k/Akt or Mek/Erk pathways [7]: does not inhibit the PI3k/Akt or Mek/Erk pathways | apoptosis induction [8]: Little apoptosis induction | Jak2 activation [4]: suppress both Stat3 and Jak2 activation | accumulation in G0/G1 phase [9]: not either single drug treatment | cell death ([10]; 0.05 μM JSI-124 alone): 7% | Stat3 activation [5]: suppress both Stat3 and Jak2 activation

C[C@@H]1C[C@@H]([C@H](O)CC2CC(=O)NC(=O)C2)C(=O)[C@@H](C)C1 [cycloheximide]
IL-6-induced HIF-1α expression ([2]; MCF-7 cells, 20 ng/ml IL-6, protein synthesis blocked): attenuation of HIF-1α expression

heregulin
activated Stat3 ([1]; MCF-7 cells, heregulin at 100 ng/ml): detectable levels of activated Stat3 | HIF-1α expression ([2]; MCF-7 cells, heregulin): induces HIF-1α expression | VEGF expression ([3]; control MCF-7 cells, heregulin): upregulates VEGF expression

O=c1cc(N2CCOCC2)oc2c(-c3ccccc3)cccc12 [LY294002, 2-(4-morpholinyl)-8-phenyl-4H-1-benzopyran-4-one]
apoptosis induction [8]: Little apoptosis induction | accumulation in G0/G1 phase [9]: not either single drug treatment | cell death ([10]; 20 μM LY294002 alone): 14%

Cucurbitacin Q
Jak2 activation [4]: not Jak2 activation | Stat3 activation [5]: suppress Stat3 activation

CC(=O)OC(C)(C)/C=C/C(=O)[C@](C)(O)[C@H]1[C@H](O)C[C@@]2(C)[C@@H]3CC=C4[C@H](C[C@H](O)C(=O)C4(C)C)[C@]3(C)C(=O)C[C@]12C [Cucurbitacin B]
Jak2 activation [4]: suppress both Stat3 and Jak2 activation | Stat3 activation [5]: suppress both Stat3 and Jak2 activation

CCN(CC)CCOc1ccc(Nc2ncc3cc(-c4c(Cl)cccc4Cl)c(=O)n(C)c3n2)cc1 [PD166285]
Stat3 DNA-binding activity [1]: parallel reduction in Stat3 DNA-binding activity | HIF-1α protein level [2]: dose-dependent reduction in HIF-1α protein level
